Read-outs that look alike come from different tables or passages of the source. Marks after values point to notes of the source that are not given here.
Assays:
[1] = system: in vitro matured adipocytes; assay: alamar blue cell viability assay (adipocytolytic potential), mature adipocytes; assay type: cell-based; details: for Viability Adipocytes (%): 48h incubation, vehicle = 100%
Procedure: (§1) The following experimental setup was used for determination of adipocytolytic potential of test compounds with preadipocytes and mature adipocytes: • Preadipocytes (PromoCell) were seeded in Preadipocyte Growth Medium at 45000 cells/ cm^2 to allow attachment overnight. Cells were cultured at 37°C and 5% CO2 untill postconfluence. Differentiation was started with incubation of cells in Differentiation Medium for 7 days followed by incubation in Nutrition medium for 14 further days. After differentiation process, mature adipocytes were incubated with indicated concentration of indicated triterpenes.
(§2) 6 replicates of each test compound concentration were tested. Each plate included a negative control and a compound interference control (for all concentrations, duplicates).
(§3) Cell viability as surrogate for adipocytolytic potential of compounds were analysed by alamar blue assay. In brief, 20µl of a 0,1mg/ml Resazurin sodium salt (Sigma; R7017-1G) solution was added to each well 48 hrs after compound incubation. The cells were incubated for 90 min at 37°C and 5% CO2 and the resulting conversion of resazurin to resorufin was measured by a fluorescence plate reader at 590 nm. Vehicle controls were set as 100%. IC50-values were analysed using SigmaBlotV13.

[2] = system: Preadipocytes (PromoCell); assay: alamar blue cell viability assay (adipocytolytic potential), preadipocytes; assay type: cell-based; details: for Viability Preadipocytes (%): 48h incubation, vehicle = 100%; for IC50: viability, 48 hrs, read-out: IC50 [µM] Pre-ad ipocytes
Procedure: as §1, §2, §3

inguinal fat pad [3] = assay: fat histology analysis of injected inguinal fat pads (H&E); assay type: in vivo, Male Sprague-Dawley rats
Procedure: (§4) After shaving the skin the inguinal area, rats, were injected into the inguinal fat pads (3 injection sites per fat pad for every rat, 100ul/per site). For all groups, 6 rats were injected with sterile vehicle, or obeticholic acid on day 1, day 7 and day 14 in the right pad and left fat pad was intact. For the other 6 rats were injected with sterile vehicle obeticholic acid on day 1, day 7 and day 14 in the left pad and right pad was intact.
Inguinal fat embedded in paraffin were cross-sectioned (5 µm each). For each mouse, a serial section at intervals of 40 to 50 µm was made and one section was collected for every 10 sections. In total, five sections per animal were used for Hematoxylin and eosin (H&E) stain and adipocyte number and size analysis. Histologic examination was performed by well-trained pathologists in a double-blind fashion. Three factors were examined in each sample: the quantity of normal fat, fat necrosis and inflammatory activity. […]. H&E staining was used in evaluation of the inflammatory status.

inguinal fat pad [4] = assay: injection into inguinal fat pads of rats: fat pad weight, volume, fat content; assay type: in vivo, Male Sprague-Dawley rats; details: 3 sites 100 µl each, days 1, 7, 14, analysis day 35, mean ±SEM
Procedure: All work was done under sterile extractor hood/luminar airflow working environment. Final solution were filtered through sterile 0.22um Millipore PES membrane syringer filter unit. […].
To 0.4099g Na3PO4 water for injection was added to a final weight of 50 g.
For the highest (2%) concentration, 100 mg of obeticholic acid were added with 2.75 ml of above solution, 112,5 mg of glycerol and finally 2.038 ml of sterile water to make 5 ml solution. Lower concentrations were adjusted accordingly.
Male Sprague-Dawley rats (200-300g of body weight) were used for this study (Vital River Laboratories Animal Ltd., China) and were housed in a temperature (22 ± 3 °C) and humidity (55 ± 15 %) controlled AAALAC accredited facility. Animals were provided with food (Keaoxieli certified Rodent Diet) and sterile water ad libitum. The animals were on a 12-hour light/dark (6:00 am /6:00 pm) cycle and acclimated for 1 week prior to the study. Rats were housed in a plexiglas cage (3 rats per cage).
as §4
Isolated inguinal fat pad volume was measured using YLS - 7 b digit volume measuring instrument (Jinan YiYan Technology Development co., LTD, Shandong, P.R. China) according to manufacturer instructions.
Rats were euthanized and the abdomen was cut and opened. Inguinal fat pads were exposed and a photo was taken. Then inguinal fat pads were isolated, and a gross photo was taken again followed by weighting of the pad. Total fat lipids were extracted from the inguinal fat using a protocol adapted from Folch et al. Fresh fat tissue (1g) was homogenized in 20ml of a 2:1 chloroform-methanol solution. The homogenate was filtered using a fat-free filter paper and funneled into a pre-weighted 50-ml glass vial. Then the previous vial and funnel were washed with an additional 5ml of a 2:1 chloroform-methanol solution. Afterwards 2.5 ml of 0.9% NaCl was added. The lipids were separated by centrifugation at 1,800 g, 10°C for 5 min; the aqueous layer was discarded and the tube was flushed with nitrogen until the lipid pellet was dry. The tube containing the lipid pellet was reweighed, and total lipid extracted per gram of total tissue was calculated.
Results were expressed as mean ± SEM. Statistical analysis was performed using ANOVA on ranks, followed if significant by Mann-Whitney test. The difference was considered significant when p< 0.05.
. Herein, the values representmean ±SEM. *-P<0.05 vs control. Table 5 Effect of obeticholic acid on inguinal fat pad in rats.

adipocytes = assay: Caspase-Glo 3/7 Assay, apoptosis induction in adipocytes; assay type: cell-based; details: vehicle basal apoptosis = 100%
Procedure: as §1
For analysing the potential of compounds to induce apoptosis the Caspase-Glo® 3/7 Assay was used (Promega) as recommended by the supplier. In brief, 100µl of Caspase Reagent was added to 100µl cell culture medium and cells were incubated at 37°C and 5% CO2 for 1 hr. Luminescence signal was measured with a SynergyH4 plate reader. Vehicle controls were used to define basal apoptosis as 100%. Table 1 Impact on viability of in vitro matured adipocytes after 48h incubation with indicated compound in increasing concentration

[5] = Adipocyte, viability, 48 hrs, read-out: IC50 [µM] Adipocytes
[6] = 48 h, read-out: Viability Preadipocytes (%)

C[C@H](CCC(=O)O)[C@H]1CC[C@H]2[C@@H]3CC[C@@H]4C[C@H](O)CC[C@]4(C)[C@H]3C[C@H](O)[C@]12C [Deoxycholic acid]
Viability Adipocytes (%) ([1]; 10 µM): 106.98% | Viability Adipocytes (%) ([1]; 50 µM): 95.61% | Viability Adipocytes (%) ([1]; 100 µM): 94.30% | Viability Adipocytes (%) ([1]; 300 µM): 22.06% | Viability Adipocytes (%) ([1]; 600 µM): 0.11% | IC50 ([1]; Adipocyte, read-out: concentration required to achieve 50%-decrease in vitality of adipocytes): 200 µM | IC50 [1, 5]: 244 µM | Viability Preadipocytes (%) ([2]; 10 µM): 96.22% | Viability Preadipocytes (%) ([2]; 50 µM): 95.61% | Viability Preadipocytes (%) ([2]; 100 µM): 98.03% | Viability Preadipocytes (%) ([2]; 300 µM): 26.08% | Viability Preadipocytes (%) ([2]; 600 µM): 0.00% | IC50 [2]: 232 µM

CC[C@H]1[C@@H](O)[C@@H]2[C@H](CC[C@]3(C)[C@@H]([C@H](C)CCC(=O)O)CC[C@@H]23)[C@@]2(C)CC[C@@H](O)C[C@@H]12 [Obeticholic acid, (3α,5β,6α,7α)-6-ethyl-3,7-dihydroxycholan-24-oic acid]
inflammation (histology) (inguinal fat pad [3]; 0.5 % solution injected into inguinal fat pad): not | fat necrosis as measured by histology (inguinal fat pad [3]; 0.5, 1 and 2 % solutions): not affected | normal fat content as measured by histology (inguinal fat pad [3]; 0.5, 1 and 2 % solutions): not affected | inflammation (histology) (inguinal fat pad [3]; 1 % solution injected into inguinal fat pad): not | inflammation (histology) (inguinal fat pad [3]; 2 % solution injected into inguinal fat pad): increase in inflammation | Viability Adipocytes (%) ([1]; 100 µM): 49.17% | viability at 10 µM ([1]; Adipocyte, 48 h, read-out: Viability Adipocytes (%), 10 µM, 48h incubation, vehicle = 100%): 101% | viability at 50 µM ([1]; Adipocyte, 48 h, read-out: Viability Adipocytes (%), 50 µM, 48h incubation, vehicle = 100%): 89.6% | viability at 100 µM ([1]; Adipocyte, 48 h, read-out: Viability Adipocytes (%), 100 µM, 48h incubation, vehicle = 100%): ~50% | viability at 300 µM ([1]; Adipocyte, 48 h, read-out: Viability Adipocytes (%), 300 µM, 48h incubation, vehicle = 100%): 0.29% | IC50 [1, 5]: 93.9 µM | Inguinal fat pad fat content difference to contralateral (sham) pad (g) N=8 (inguinal fat pad [4]; 0.5 % solution): -0.169±0.02* g | Inguinal fat pad weight difference to contralateral (sham) pad (g) N=12 (inguinal fat pad [4]; 0.5 % solution): -0.192±0.04* g | Inguinal fat pad fat content difference to contralateral (sham) pad (g) N=8 (inguinal fat pad [4]; 1 % solution): -0.387±0.04* g | Inguinal fat pad weight difference to contralateral (sham) pad (g) N=12 (inguinal fat pad [4]; 1 % solution): -0.352±0.03* g | Inguinal fat pad fat content difference to contralateral (sham) pad (g) N=8 (inguinal fat pad [4]; 2 % solution): -0.523±0.05* g | Inguinal fat pad weight difference to contralateral (sham) pad (g) N=12 (inguinal fat pad [4]; 2 % solution): -0.526±0.07* g | Apoptosis Adipocytes (%) (adipocytes; 50 µM, 6 hrs): 132.28% | Apoptosis Adipocytes (%) (adipocytes; 50 µM, 24 hrs): 146.44% | Apoptosis Adipocytes (%) (adipocytes; 100 µM, 6 hrs): 503.28% | Apoptosis Adipocytes (%) (adipocytes; 100 µM, 24 hrs): 180.88% | Apoptosis Adipocytes (%) (adipocytes; 300 µM, 6 hrs): 1164.30% | Apoptosis Adipocytes (%) (adipocytes; 300 µM, 24 hrs): 779.64% | viability at 10 µM [2, 6]: 93% | viability at 50 µM [2, 6]: 83.1% | viability at 100 µM [2, 6]: 21.4% | viability at 300 µM [2, 6]: 0.41% | IC50 [2]: 87.2 µM
